From paper PMC10196468, “Synthesis, in vitro biological assessment, and molecular docking study of benzimidazole-based thiadiazole derivatives as dual inhibitors of α-amylase and α-glucosidase” (Frontiers in Chemistry, 2023)

molecular target: α-glucosidase; experiment: in vitro α-glucosidase inhibitory assay (p-nitrophenyl-D-glucopyranoside, 405 nm); format: biochemical; settings: triplicates; standard acarbose; read-out: α-Glucosidase IC50 (µM ±SEM)
Protocol: 10 µl of the α-glucosidase enzyme, 20 µl of test samples (10-50 µg/ml) and 50 µl, of 0.1M phosphate buffer (pH=6.8), were incubated at 37°C for 15 min in a 96-well plate. 20 µl of p-nitrophenyl—D-glucopyranoside solution was further added as a substrate and again incubated for 20 min at 37 °C. Sodium carbonate (50 µl of 0.1M) was added to terminate the reaction. P-nitrophenol was liberated, during the reaction which was measured at 405nm using an ELISA microplate reader. […] All the experiments were carried out in triplicates. The percentage inhibition was calculated by the formula.
% Inhibition = [(Ac – As) /Ac] × 100 Ac-absorbance for control, As-absorbance for standard.

Row | Compound | IC50
1 | FC(F)(F)c1ccc(/C=N/c2nnc(-c3cccc4[nH]cnc34)s2)cc1 [Analog 1, (E)-N-(5-(1H-benzo[d]imidazol-4-yl)-1,3,4-thiadiazol-2-yl)-1-(4-(trifluoromethyl)phenyl)methanimine] | 2.8 ± 0.2 µM
2 | Oc1cc(F)ccc1/C=N/c1nnc(-c2cccc3[nH]cnc23)s1 [Analog 2, (E)-2-(((5-(1H-benzo[d]imidazol-4-yl)-1,3,4-thiadiazol-2-yl)imino)methyl)-5-fluorophenol] | 2.1 ± 0.1 µM
3 | O=[N+]([O-])c1cc(Br)ccc1/C=N/c1nnc(-c2cccc3[nH]cnc23)s1 [Analog 3, (E)-N-(5-(1H-benzo[d]imidazol-4-yl)-1,3,4-thiadiazol-2-yl)-1-(4-bromo-2-nitrophenyl)methanimine] | 24.6 ± 0.2 µM
4 | O=[N+]([O-])c1ccccc1/C=N/c1nnc(-c2cccc3[nH]cnc23)s1 [Analog 4, (E)-N-(5-(1H-benzo[d]imidazol-4-yl)-1,3,4-thiadiazol-2-yl)-1-(2 nitrophenyl)methanimine] | 7.4 ± 0.3 µM
5 | O=[N+]([O-])c1ccc(/C=N/c2nnc(-c3cccc4[nH]cnc34)s2)cc1 [Analog 5, (E)-N-(5-(1H-benzo[d]imidazol-4-yl)-1,3,4-thiadiazol-2-yl)-1-(4-nitrophenyl)methanimine] | 5.7 ± 0.2 µM
6 | Cc1ccc(/C=N/c2nnc(-c3cccc4[nH]cnc34)s2)cc1 [Analog 6, (E)-N-(5-(1H-benzo[d]imidazol-4-yl)-1,3,4-thiadiazol-2-yl)-1-(p-tolyl)methanimine] | 15.3 ± 0.1 µM
7 | Cc1ccccc1/C=N/c1nnc(-c2cccc3[nH]cnc23)s1 [Analog 7, (E)-N-(5-(1H-benzo[d]imidazol-4-yl)-1,3,4-thiadiazol-2-yl)-1-(o-tolyl)methanimine] | 19.9 ± 0.1 µM
8 | Cc1cccc(/C=N/c2nnc(-c3cccc4[nH]cnc34)s2)c1 [Analog 8, (E)-N-(5-(1H-benzo[d]imidazol-4-yl)-1,3,4-thiadiazol-2-yl)-1-(m-tolyl)methanimine] | 21.6 ± 0.3 µM
9 | Fc1ccc(/C=N/c2nnc(-c3cccc4[nH]cnc34)s2)cc1 [Analog 9, (E)-N-(5-(1H-benzo[d]imidazol-4-yl)-1,3,4-thiadiazol-2-yl)-1-(4-fluorophenyl)methanimine] | 3.9 ± 0.1 µM
10 | COc1ccc(OC)c(/C=N/c2nnc(-c3cccc4[nH]cnc34)s2)c1 [Analog 10, (E)-N-(5-(1H-benzo[d]imidazol-4-yl)-1,3,4-thiadiazol-2-yl)-1-(2,5-dimethoxyphenyl)methanimine] | 14.5 ± 0.5 µM
11 | COc1ccccc1/C=N/c1nnc(-c2cccc3[nH]cnc23)s1 [Analog 12, (E)-N-(5-(1H-benzo[d]imidazol-4-yl)-1,3,4-thiadiazol-2-yl)-1-(2-methoxyphenyl)methanimine] | 15.4 ± 0.3 µM
12 | COc1cccc(/C=N/c2nnc(-c3cccc4[nH]cnc34)s2)c1 [Analog 13, (E)-N-(5-(1H-benzo[d]imidazol-4-yl)-1,3,4-thiadiazol-2-yl)-1-(3-methoxyphenyl)methanimine] | 17.2 ± 0.3 µM
13 | O=[N+]([O-])c1cc(Cl)ccc1/C=N/c1nnc(-c2cccc3[nH]cnc23)s1 [Analog 14, (E)-N-(5-(1H-benzo[d]imidazol-4-yl)-1,3,4-thiadiazol-2-yl)-1-(4-chloro-2-nitrophenyl)methanimine] | 9.3 ± 0.4 µM
14 | Clc1cccc(/C=N/c2nnc(-c3cccc4[nH]cnc34)s2)c1Cl [Analog 15, (E)-N-(5-(1H-benzo[d]imidazol-4-yl)-1,3,4-thiadiazol-2-yl)-1-(2,3-dichlorophenyl)methanimine] | 6.6 ± 0.1 µM
15 | Brc1ccc(/C=N/c2nnc(-c3cccc4[nH]cnc34)s2)cc1 [Analog 16, (E)-N-(5-(1H-benzo[d]imidazol-4-yl)-1,3,4-thiadiazol-2-yl)-1-(4-bromophenyl)methanimine] | 26.1 ± 0.1 µM
16 | (E)-N-(5-(1H-benzo[d]imidazol-4-yl)-1,3,4-thiadiazol-2-yl)-1-(3-fluorophenyl)methanimine [Analog 11] | 4.7 ± 0.1 µM
17 | (E)-N-(5-(1H-benzo[d]imidazol-4-yl)-1,3,4-thiadiazol-2-yl)-1-(4-bromophenyl)methanimine [Analog 17] | 2.3 ± 0.6 µM

molecular target: T1, α-amylase (Sus scrofa, UniProt P00690); experiment: in vitro α-amylase inhibitory assay (starch/DNS, absorbance 540 nm); format: biochemical; settings: triplicates; standard acarbose; read-out: α-Amylase IC50 (µM ±SEM)
T1 sequence (P00690 16-511): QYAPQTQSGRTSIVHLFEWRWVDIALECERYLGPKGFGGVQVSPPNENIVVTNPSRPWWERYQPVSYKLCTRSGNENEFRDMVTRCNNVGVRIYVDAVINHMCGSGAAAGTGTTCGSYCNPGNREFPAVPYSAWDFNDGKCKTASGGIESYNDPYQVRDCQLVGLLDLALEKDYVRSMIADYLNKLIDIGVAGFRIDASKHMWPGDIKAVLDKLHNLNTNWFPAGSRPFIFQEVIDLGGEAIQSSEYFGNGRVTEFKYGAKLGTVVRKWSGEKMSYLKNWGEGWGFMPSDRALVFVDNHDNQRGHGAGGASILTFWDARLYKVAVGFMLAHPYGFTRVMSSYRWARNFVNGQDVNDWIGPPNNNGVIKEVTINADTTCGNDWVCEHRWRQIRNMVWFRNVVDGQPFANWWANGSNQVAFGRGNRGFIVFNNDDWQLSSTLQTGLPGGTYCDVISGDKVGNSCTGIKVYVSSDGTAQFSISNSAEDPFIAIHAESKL
Protocol: 20µL of α -amylase solution (0.5 mg/ml) was added to phosphate buffer (pH 6.9, 0.02 M, 200 µL). 250 μL of test samples (10-50 µg/mL) was added, to all the above solutions and kept for incubation for 10 min.1% starch solution (200µL) was further added and again kept for incubation for 10 min at a temperature of 25°C. Termination of the reaction was affected by the addition of 400 μL of 3, 5-dinitrosalicylic acid (DNS) reagent. Lastly, it was incubated in water (at 70°C, 5 min). The absorbance was recorded using an ELISA microplate reader at 540 nm. […] All the reactions were carried out in triplicates. The reaction mixture, devoid of the test sample, served as control. The following formula was employed to calculate percentage inhibition..
% Inhibition = [(Ac – As) /Ac] × 100 Ac-Control absorbance, As-Standard absorbance

Row | Compound | IC50
18 | (E)-N-(5-(1H-benzo[d]imidazol-4-yl)-1,3,4-thiadiazol-2-yl)-1-(3-fluorophenyl)methanimine [Analog 11] | 3.18 ± 0.1 µM
19 | (E)-N-(5-(1H-benzo[d]imidazol-4-yl)-1,3,4-thiadiazol-2-yl)-1-(4-bromophenyl)methanimine [Analog 17] | 2.16 ± 0.5 µM
